What was measured:
[1] = system: K562 (chronic myelogenous leukaemia); test: Effect on tumor cell lines, viable cell count by trypan blue exclusion (Latham et al.): K562; type: cell-based; conditions: K562 chronic myelogenous leukaemia cells, viable cell count 96 hours after treatment
[2] = system: DU145 (prostate cancer); test: Effect on tumor cell lines, viable cell count by trypan blue exclusion (Latham et al.): DU145; type: cell-based; conditions: DU145 prostate cancer cells, viable cell count 96 hours after treatment

Compound	IC50 ([1]; Homo sapiens, K562, 96 h) [µM]	IC50 ([2]; Homo sapiens, DU-145, 96 h) [µM]	melting point [°C]	IC50 [1] [µM]	IC50 [2] [µM]
N#C/C(=C\c1ccc(Cl)cc1)S(=O)(=O)Nc1ccc(Br)cc1 [Example 212]	25 to 50	25 to 50	169 to 171	–	–
N#C/C(=C\c1c(F)c(F)c(F)c(F)c1F)S(=O)(=O)Cc1ccc(Cl)cc1 [Example 21]	25	50	154 to 156	–	–
Cc1ccc(/C=C(\C#N)S(=O)(=O)Cc2ccc(Cl)cc2)cc1C [Example 66]	50 to 100	50 to 100	191 to 202	–	–
N#C/C(=C\c1c[nH]c2ccc(Cl)cc12)S(=O)(=O)Cc1ccc(F)cc1 [Example 77]	50 to 100	50 to 100	250 to 265	–	–
Cc1ccsc1/C=C(\C#N)S(=O)(=O)Nc1ccc(Br)cc1 [Example 224]	50 to 100	50 to 100	176 to 179	–	–
N#C/C(=C\c1c(F)c(F)c(F)c(F)c1F)S(=O)(=O)Cc1ccc(Br)cc1 [Example 19]	10	50	146 to 148	–	–
COc1cc(/C=C(\C#N)S(=O)(=O)Nc2ccc(F)cc2)cc(OC)c1OC [Example 249]	> 100	> 100	179 to 182	–	–
COc1cc(OC)c(/C=C(\C#N)S(=O)(=O)Nc2ccccc2Oc2ccccc2)c(OC)c1 [Example 208]	25 to 50	50 to 100	154 to 156	–	–
Cc1ccc(NS(=O)(=O)/C(C#N)=C/c2ccc(Cl)cc2)c(C)c1 [Example 267]	50 to 100	50 to 100	158 to 161	–	–
N#C/C(=C\c1cccc(O)c1)S(=O)(=O)Cc1cccc(Br)c1 [Example 117]	> 100	> 100	160 to 165	–	–
COc1cc(OC)c(/C=C(\C#N)S(=O)(=O)Cc2ccc(Cl)cc2)c(OC)c1 [Example 53]	50 to 100	50 to 100	177 to 180	–	–
N#C/C(=C\c1ccccc1O)S(=O)(=O)Nc1ccc(Br)cc1 [Example 228]	25 to 50	25 to 50	169 to 170	–	–
COc1ccc(NS(=O)(=O)/C(C#N)=C/c2ccc(Br)cc2)cc1 [Example 291]	–	–	102 to 103	50 to 100	50 to 100
COc1ccc(CS(=O)(=O)/C(C#N)=C/c2ccc(Cl)c(Cl)c2Cl)cc1 [Example 146]	25 to 50	50 to 100	136 to 138	–	–
Cc1ccc(C)c(/C=C(\C#N)S(=O)(=O)Cc2ccc(Br)cc2)c1 [Example 119]	> 100	> 100	124 to 128	–	–
CCOc1ccc(/C=C(\C#N)S(=O)(=O)Nc2ccc(Br)cc2)cc1OC [Example 219]	50 to 100	50 to 100	188 to 190	–	–
CCOc1cc(/C=C(\C#N)S(=O)(=O)Cc2ccc(Cl)cc2)ccc1O [Example 74]	–	–	150 to 165	50 to 100	50 to 100
COc1ccccc1/C=C(\C#N)S(=O)(=O)Cc1ccccc1 [Example 126]	> 100	> 100	169 to 172	–	–
N#C/C(=C\c1ccccc1Cl)S(=O)(=O)Nc1ccc(Br)cc1 [Example 227]	25 to 50	50 to 100	192 to 194	–	–
CCOc1ccc(/C=C(\C#N)S(=O)(=O)Nc2ccccc2Oc2ccccc2)cc1OC [Example 211]	1 to 10	1 to 10	142 to 144	–	–
N#C/C(=C\c1ccc(Cl)cc1)S(=O)(=O)Cc1ccc(F)cc1 [Example 89]	50 to 100	50 to 100	150 to 155	–	–
COc1ccc(/C=C(\C#N)S(=O)(=O)Cc2ccc(F)cc2)cc1O [Example 80]	50 to 100	> 100	193 to 205	–	–
Cc1ccc(NS(=O)(=O)/C(C#N)=C/c2cc(C)ccc2C)c(C)c1 [Example 259]	50 to 100	> 100	139 to 141	–	–
Cc1ccc(NS(=O)(=O)/C(C#N)=C/c2ccc(Br)cc2)c(C)c1 [Example 262]	10 to 25	25 to 50	164 to 166	–	–
COc1ccc(NS(=O)(=O)/C(C#N)=C/c2c(F)c(F)c(F)c(F)c2F)cc1 [Example 192]	1 to 10	10 to 25	100 to 102	–	–
COc1ccc(CS(=O)(=O)/C(C#N)=C/c2cc(OC)cc(OC)c2)cc1 [Example 149]	50 to 100	> 100	135 to 140	–	–
N#C/C(=C\c1ccc(Cl)c(Cl)c1Cl)S(=O)(=O)Cc1ccc(Cl)cc1 [Example 62]	50 to 100	> 100	145 to 155	–	–
